Consider eight molecules from patent US11629143B2, “HipK4 inhibitors and uses thereof” (Vibliome Therapeutics, LLC, priority 2020, dated 2023).

What all share (experiment): Kinase panel (mobility shift)
Holding throughout (format): biochemical

One assay concerns the target T1, MER (Homo sapiens, UniProt Q12866).
T1 sequence (Q12866 21-999): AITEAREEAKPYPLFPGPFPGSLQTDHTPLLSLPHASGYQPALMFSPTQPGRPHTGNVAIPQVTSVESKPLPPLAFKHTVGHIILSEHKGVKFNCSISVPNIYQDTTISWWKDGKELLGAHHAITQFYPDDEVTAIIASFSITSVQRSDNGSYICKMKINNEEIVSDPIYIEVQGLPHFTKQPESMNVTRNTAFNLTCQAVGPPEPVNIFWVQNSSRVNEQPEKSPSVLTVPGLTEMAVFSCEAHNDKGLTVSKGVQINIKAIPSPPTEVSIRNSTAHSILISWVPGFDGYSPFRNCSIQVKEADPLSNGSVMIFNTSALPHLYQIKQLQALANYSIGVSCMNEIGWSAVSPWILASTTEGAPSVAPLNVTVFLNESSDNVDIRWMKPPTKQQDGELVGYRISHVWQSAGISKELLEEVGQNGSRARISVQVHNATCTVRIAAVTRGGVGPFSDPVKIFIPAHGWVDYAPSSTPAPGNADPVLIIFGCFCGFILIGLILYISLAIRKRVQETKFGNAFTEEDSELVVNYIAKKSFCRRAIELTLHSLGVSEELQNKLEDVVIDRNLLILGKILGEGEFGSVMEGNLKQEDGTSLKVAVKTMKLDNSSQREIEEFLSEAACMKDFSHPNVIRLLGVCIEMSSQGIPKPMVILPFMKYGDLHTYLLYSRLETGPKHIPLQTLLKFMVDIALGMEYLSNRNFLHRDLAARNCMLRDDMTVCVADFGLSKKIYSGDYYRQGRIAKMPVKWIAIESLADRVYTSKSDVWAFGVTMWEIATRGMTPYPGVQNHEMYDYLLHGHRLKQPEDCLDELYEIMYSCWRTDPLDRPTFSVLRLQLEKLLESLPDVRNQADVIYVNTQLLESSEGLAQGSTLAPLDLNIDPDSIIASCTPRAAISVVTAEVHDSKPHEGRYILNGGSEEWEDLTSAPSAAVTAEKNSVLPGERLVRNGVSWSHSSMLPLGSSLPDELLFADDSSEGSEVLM
The method in brief:
(§1)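 Compound at 5 um + kinase + fluor-labeled substrate, standardized mix; rxn stopped; electrophoretic separation of product/substrate on chip; activity = product vs substrate peak fluorescence. Bins A ≥95%, B 90-94%, C 80-89%.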

For another assay, the target named is PDGFR-b (Homo sapiens, UniProt P09619). The method in brief:
as §1

Another assay deals with EPH-A5 (Homo sapiens, UniProt P54756). Particulars: at 5 um. The method in brief: as §1
The next assay has as its target T2, EPH-A6 (Homo sapiens, UniProt Q9UF33).
T2 sequence (Q9UF33 23-1036): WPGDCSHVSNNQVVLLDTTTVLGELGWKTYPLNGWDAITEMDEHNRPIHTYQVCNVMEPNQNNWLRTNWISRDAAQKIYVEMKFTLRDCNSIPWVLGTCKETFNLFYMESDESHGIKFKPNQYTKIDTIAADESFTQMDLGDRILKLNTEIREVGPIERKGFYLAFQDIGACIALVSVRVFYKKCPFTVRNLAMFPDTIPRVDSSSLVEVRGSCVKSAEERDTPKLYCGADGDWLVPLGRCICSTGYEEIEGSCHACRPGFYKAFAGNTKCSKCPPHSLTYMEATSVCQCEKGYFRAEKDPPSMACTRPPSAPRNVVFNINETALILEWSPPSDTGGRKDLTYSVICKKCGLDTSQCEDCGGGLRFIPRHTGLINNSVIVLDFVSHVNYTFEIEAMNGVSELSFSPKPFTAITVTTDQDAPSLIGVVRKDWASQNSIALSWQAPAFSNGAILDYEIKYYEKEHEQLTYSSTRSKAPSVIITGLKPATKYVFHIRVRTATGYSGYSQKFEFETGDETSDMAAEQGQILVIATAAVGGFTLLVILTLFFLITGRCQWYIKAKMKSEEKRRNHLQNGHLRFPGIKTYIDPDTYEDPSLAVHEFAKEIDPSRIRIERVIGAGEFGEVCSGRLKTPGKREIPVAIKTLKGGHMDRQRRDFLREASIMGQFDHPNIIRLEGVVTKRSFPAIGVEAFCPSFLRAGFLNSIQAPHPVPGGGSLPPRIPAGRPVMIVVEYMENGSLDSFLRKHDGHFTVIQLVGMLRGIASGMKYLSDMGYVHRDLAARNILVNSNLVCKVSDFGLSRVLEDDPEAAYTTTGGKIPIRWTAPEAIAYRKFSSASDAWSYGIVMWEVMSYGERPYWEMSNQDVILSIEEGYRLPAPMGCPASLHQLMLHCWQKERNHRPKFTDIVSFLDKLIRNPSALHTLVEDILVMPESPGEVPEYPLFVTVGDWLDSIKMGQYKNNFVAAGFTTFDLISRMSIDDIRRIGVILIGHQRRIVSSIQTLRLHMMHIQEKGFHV
The method in brief: as §1

The next assay concerns the target SRC (Homo sapiens, UniProt P12931). Put shortly:
as §1

A further assay concerns the target P38-a (Homo sapiens, UniProt Q16539). Particulars: at 5 um. The method in brief: as §1
For a further assay, the target named is RIPK2 (Homo sapiens, UniProt O43353). The method in brief:
as §1

Sequence of RIPK2 (O43353 whole entry, species assumed): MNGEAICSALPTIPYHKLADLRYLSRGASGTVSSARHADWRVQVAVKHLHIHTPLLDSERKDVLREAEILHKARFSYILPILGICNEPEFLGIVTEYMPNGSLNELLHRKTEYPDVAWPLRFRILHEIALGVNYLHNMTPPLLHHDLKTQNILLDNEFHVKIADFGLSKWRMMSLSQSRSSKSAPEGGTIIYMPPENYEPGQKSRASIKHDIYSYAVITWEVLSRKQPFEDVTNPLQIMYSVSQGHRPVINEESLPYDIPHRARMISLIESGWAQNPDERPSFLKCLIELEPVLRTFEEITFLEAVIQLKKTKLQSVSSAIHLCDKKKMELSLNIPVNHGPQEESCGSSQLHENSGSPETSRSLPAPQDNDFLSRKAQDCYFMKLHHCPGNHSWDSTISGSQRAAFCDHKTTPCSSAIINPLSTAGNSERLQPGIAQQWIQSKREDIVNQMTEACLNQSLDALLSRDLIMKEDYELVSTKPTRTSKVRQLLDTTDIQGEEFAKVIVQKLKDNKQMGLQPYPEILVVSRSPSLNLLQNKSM
Sequence of P38-a (Q16539 whole entry): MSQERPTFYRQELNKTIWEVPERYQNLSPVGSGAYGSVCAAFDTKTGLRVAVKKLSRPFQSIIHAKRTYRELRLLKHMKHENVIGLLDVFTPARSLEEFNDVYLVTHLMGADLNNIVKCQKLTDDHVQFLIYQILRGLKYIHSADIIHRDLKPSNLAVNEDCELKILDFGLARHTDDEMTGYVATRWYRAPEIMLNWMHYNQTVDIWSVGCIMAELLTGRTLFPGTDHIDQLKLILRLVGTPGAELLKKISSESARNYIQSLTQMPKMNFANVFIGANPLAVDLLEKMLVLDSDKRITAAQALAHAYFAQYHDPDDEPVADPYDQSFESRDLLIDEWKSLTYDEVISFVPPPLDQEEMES
Sequence of PDGFR-b (P09619 33-1106, species assumed): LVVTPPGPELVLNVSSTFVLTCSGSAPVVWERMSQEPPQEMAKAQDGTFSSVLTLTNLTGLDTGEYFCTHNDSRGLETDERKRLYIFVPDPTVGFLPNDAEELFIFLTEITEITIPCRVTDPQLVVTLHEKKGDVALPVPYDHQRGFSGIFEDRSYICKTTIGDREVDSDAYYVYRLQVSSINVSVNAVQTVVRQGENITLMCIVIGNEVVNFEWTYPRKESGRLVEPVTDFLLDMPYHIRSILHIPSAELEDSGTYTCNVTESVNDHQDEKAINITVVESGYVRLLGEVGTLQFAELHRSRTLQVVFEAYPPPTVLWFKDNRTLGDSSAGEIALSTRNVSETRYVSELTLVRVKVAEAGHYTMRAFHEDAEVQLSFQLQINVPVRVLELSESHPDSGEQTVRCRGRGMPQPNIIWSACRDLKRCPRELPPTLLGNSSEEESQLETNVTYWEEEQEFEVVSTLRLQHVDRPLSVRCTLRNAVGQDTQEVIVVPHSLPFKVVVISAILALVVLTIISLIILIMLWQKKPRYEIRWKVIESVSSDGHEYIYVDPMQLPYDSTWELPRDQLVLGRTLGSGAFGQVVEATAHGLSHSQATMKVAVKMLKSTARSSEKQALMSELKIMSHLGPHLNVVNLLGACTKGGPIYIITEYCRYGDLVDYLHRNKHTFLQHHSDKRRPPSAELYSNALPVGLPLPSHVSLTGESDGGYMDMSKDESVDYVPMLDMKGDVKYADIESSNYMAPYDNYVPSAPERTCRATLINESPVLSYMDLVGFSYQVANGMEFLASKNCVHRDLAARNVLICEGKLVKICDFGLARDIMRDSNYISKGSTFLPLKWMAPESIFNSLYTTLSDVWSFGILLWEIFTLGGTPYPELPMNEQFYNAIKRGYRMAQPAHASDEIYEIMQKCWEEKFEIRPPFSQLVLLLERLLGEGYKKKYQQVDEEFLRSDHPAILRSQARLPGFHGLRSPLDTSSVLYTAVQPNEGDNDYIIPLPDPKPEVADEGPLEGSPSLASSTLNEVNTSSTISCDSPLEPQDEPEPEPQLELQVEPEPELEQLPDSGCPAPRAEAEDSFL
Sequence of SRC (P12931 whole entry, species assumed): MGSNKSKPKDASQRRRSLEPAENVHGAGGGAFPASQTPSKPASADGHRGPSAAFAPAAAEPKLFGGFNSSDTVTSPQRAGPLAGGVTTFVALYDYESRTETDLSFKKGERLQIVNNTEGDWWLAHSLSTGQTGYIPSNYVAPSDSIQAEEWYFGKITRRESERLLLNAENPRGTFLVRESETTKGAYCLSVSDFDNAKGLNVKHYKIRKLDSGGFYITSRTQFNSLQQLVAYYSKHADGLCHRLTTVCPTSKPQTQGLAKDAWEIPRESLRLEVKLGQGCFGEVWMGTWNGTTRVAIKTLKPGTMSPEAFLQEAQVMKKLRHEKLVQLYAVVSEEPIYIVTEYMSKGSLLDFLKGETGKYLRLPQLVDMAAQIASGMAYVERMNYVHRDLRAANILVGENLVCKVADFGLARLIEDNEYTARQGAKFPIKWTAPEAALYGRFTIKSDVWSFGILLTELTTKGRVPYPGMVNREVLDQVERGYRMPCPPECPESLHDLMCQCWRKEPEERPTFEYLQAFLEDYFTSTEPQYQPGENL
Sequence of EPH-A5 (P54756 25-1037, species assumed): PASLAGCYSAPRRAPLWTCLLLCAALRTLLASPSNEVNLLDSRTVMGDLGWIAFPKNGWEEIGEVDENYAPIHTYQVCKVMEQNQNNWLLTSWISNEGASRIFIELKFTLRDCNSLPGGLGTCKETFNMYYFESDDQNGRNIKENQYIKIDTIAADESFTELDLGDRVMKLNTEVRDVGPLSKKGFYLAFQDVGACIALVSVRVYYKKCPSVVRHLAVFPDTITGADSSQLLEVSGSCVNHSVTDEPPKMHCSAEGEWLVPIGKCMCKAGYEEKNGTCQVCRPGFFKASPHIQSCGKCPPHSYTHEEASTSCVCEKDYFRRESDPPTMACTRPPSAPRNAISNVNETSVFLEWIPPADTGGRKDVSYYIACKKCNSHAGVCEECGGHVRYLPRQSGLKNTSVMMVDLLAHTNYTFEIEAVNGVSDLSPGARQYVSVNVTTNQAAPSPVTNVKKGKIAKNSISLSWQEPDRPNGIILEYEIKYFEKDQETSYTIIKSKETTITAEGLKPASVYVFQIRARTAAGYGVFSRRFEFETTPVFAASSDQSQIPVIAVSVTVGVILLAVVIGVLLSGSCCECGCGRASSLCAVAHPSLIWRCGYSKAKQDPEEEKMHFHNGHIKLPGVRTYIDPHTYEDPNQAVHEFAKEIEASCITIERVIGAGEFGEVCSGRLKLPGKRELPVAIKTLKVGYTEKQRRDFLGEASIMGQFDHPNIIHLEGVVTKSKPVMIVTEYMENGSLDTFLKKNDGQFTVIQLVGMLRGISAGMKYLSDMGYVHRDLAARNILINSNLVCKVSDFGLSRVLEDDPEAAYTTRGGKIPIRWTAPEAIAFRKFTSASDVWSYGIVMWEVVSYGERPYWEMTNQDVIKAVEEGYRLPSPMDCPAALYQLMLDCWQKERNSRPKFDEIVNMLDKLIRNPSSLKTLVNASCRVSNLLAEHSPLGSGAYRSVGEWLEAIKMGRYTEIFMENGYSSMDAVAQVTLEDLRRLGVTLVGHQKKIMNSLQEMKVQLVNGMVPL

What is called inhibition is how much of the control response was suppressed. With `CNC(=O)c1cc(Oc2ccc(NC(=O)c3nc(SC)oc3-c3ccc(F)cc3F)cc2F)ccn1` [Compound 12], the inhibition at 5 µM was 80 to 89% on MER; below 50% at PDGFR-b; 80 to 89% at EPH-A6; 50 to 79% on SRC; 90 to 94% at RIPK2. Further, at EPH-A5, the “inhibition of kinase activity, EPH-A5” value was “D (category D for 50-79)”. For the same molecule, at P38-a, the “inhibition of kinase activity, P38-a” value was “D (category D for 50-79)”.
Consider `CNC(=O)c1cc(Oc2ccc(NC(=O)c3nc(S(C)(=O)=O)sc3-c3ccc(F)cc3)cc2F)ccn1` [Compound 13], for which the inhibition at 5 µM is 80 to 89% at MER; below 50% at PDGFR-b; at least 95% at EPH-A6; below 50% on SRC; 80 to 89% at RIPK2. Besides, the “inhibition of kinase activity, EPH-A5” value at EPH-A5 is given as “D (category D for 50-79)”. In addition, the “inhibition of kinase activity, P38-a” value on P38-a is given as “E (category E is less than 50%)”.
In the case of `CNC(=O)c1cc(Oc2ccc(NC(=O)c3nc(NC)oc3-c3ccc(F)cc3)cc2F)ccn1` [Compound 14], the inhibition at 5 µM at MER was 50 to 79%; on PDGFR-b, below 50%; at EPH-A6, 80 to 89%; at SRC it was below 50%; at RIPK2 it was 90 to 94%. For the same molecule, the “inhibition of kinase activity, EPH-A5” value on EPH-A5 was “D (category D for 50-79)”. For the same molecule, on P38-a, the “inhibition of kinase activity, P38-a” value is given as “D (category D for 50-79)”.
As to `CNC(=O)c1cc(Oc2ccc(NC(=O)c3nc(OC)oc3-c3ccc(F)cc3)cc2F)ccn1` [Compound 15], the inhibition at 5 µM at MER was 50 to 79%; at PDGFR-b, below 50%; on EPH-A6, 90 to 94%; on SRC, below 50%; on RIPK2, 80 to 89%. For the same molecule, on EPH-A5, the “inhibition of kinase activity, EPH-A5” value was “D (category D for 50-79)”. Moreover, the “inhibition of kinase activity, P38-a” value at P38-a was “D (category D for 50-79)”.
As to `CNC(=O)c1cc(Oc2ccc(NC(=O)c3nc(SC)oc3-c3ccc(F)s3)cc2F)ccn1` [Compound 16], the inhibition at 5 µM on MER is below 50%; at PDGFR-b, below 50%; at EPH-A6 it was 50 to 79%; on SRC, below 50%; on RIPK2, below 50%. Further, the “inhibition of kinase activity, EPH-A5” value at EPH-A5 is “E (category E is less than 50%)”. Moreover, on P38-a, the “inhibition of kinase activity, P38-a” value was “E (category E is less than 50%)”.
In the case of `CNC(=O)c1cc(Oc2ccc(NC(=O)c3nc(NC)oc3-c3ccc(F)s3)cc2F)ccn1` [Compound 17], the inhibition at 5 µM on MER, at PDGFR-b, on EPH-A6, on SRC and at RIPK2 was below 50% in each case. Besides, the “inhibition of kinase activity, EPH-A5” value on EPH-A5 was “E (category E is less than 50%)”. In addition, the “inhibition of kinase activity, P38-a” value on P38-a is recorded as “E (category E is less than 50%)”.
For the molecule `CNC(=O)c1cc(Oc2c(F)cc(NC(=O)c3nc(NC)sc3-c3ccc(F)cc3)cc2F)ccn1` [Compound 19], the inhibition at 5 µM at MER was 50 to 79%; on PDGFR-b, below 50%; at EPH-A6, 80 to 89%; on SRC it was below 50%; at RIPK2 it was 50 to 79%. For the same molecule, the “inhibition of kinase activity, EPH-A5” value on EPH-A5 is “D (category D for 50-79)”. On P38-a, the “inhibition of kinase activity, P38-a” value is listed as “D (category D for 50-79)”.
As to `CNC(=O)c1cc(Oc2ccc(NC(=O)c3nc(NC)sc3-c3ccc(F)cc3F)cc2F)ccn1` [Compound 21], the inhibition at 5 µM is below 50% on MER; below 50% on PDGFR-b; 50 to 79% at EPH-A6; below 50% on SRC; 50 to 79% on RIPK2. Also, the “inhibition of kinase activity, EPH-A5” value at EPH-A5 is “D (category D for 50-79)”. Moreover, on P38-a, the “inhibition of kinase activity, P38-a” value was “E (category E is less than 50%)”.
